Source: ChEMBL document CHEMBL1687871, “Phragmalin- and mexicanolide-type limonoids from the leaves of Trichilia connaroides” (J Nat Prod, 2011)

System: HL-60
Assay: Cytotoxicity against human HL60 cells
Format: functional, cell-based

SMILES	IC50 [µM]
C/C=C(\C)C(=O)O[C@H]1[C@@]2(C)C[C@@]3(OC(C)=O)[C@](C)([C@H]4CC[C@]5(C)C(=C4[C@H](OC(C)=O)[C@@]13OC(C)=O)[C@@H](OC(C)=O)C(=O)O[C@H]5c1ccoc1)[C@H]2CC(=O)OC [15-ACETYLTRICHAGMALIN E]	21
C/C=C(\C)C(=O)O[C@H]1[C@@]2(C)C[C@@]3(O)[C@](C)([C@H]4CC[C@]5(C)C(=C4[C@H](OC(C)=O)[C@@]13O)[C@@H](OC(C)=O)C(=O)O[C@H]5c1ccoc1)[C@H]2CC(=O)OC [TRICHAGMALIN D]	17.1
